Series [1] addresses bee venom PLA2 (Apis mellifera, UniProt P00630). In words: biochemical.
Series [2] deals with KB cells. Description: Cytotoxicity assay (MTS) on KB cells.
Experimental: The human KB cell line was obtained from ECACC (Salisbury, UK) and grown in D-MEM medium supplemented with 10% fetal calf serum (Invitrogen), in the presence of penicillin, streptomycin and fungizone in a 75 cm^2 flask under 5% CO2. Cells were plated in 96-well tissue culture microplates at a density of 650 cells/well in 200 μL medium and treated 24 hrs later with compounds dissolved in DMSO using a Biomek 3000 automate (Beckman-Coulter). Controls received the same volume of DMSO (1% final volume).
Series [3] in a line: Quantitative ORAC assay (fluorescein/AAPH). The note with it: for fold less active than Trolox: ORAC assay, compared with Trolox; for ORAC FL relative ORAC value: fluorescein (FL) + AAPH, n = 3, Trolox = 1; for concentration displaying FL decay curve similar to Trolox: fluorescein fluorescence decay induced by AAPH, Figure 3.

Structures are written as SMILES. “And” between values parts separate entries of the source, which are not always exact repeats. Identical values can stand only once. Like-named read-outs stand apart in the source and are kept apart here.

Sequence of bee venom PLA2 (P00630 34-167 limits assumed): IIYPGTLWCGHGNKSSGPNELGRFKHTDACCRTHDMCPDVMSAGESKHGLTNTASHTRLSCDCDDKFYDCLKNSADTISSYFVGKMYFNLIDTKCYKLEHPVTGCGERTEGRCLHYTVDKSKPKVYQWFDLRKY

Regarding `NC(=O)C(=O)c1c[nH]c2ccccc12` [Compound 1, (1H-Indol-3-yl)oxoacetamide], the IC50 in series [1] turned out to be 1170 ± 50 µM.

On to `COC(=O)C(=O)c1c[nH]c2ccccc12` [Compound 2, (1H-Indol-3-yl)oxoacetic acid methyl ester], for which, in series [1] (n = 2, read-out: PLA2 IC50), the IC50 amounted to 1110 ± 330 µM.

Regarding `O=Cc1c[nH]c2cc(Br)ccc12` [Compound 3, 6-Bromoindole-3-carbaldehyde], in series [1] (n = 2, read-out: PLA2 IC50), the IC50 was found to be 1270 ± 60 µM.

Turning to `C[C@H]1CC[C@H]2C(C)(C)CCC[C@]23Oc2ccc(O)cc2C[C@]13C` [Compound 4, Aureol], the IC50 in series [2] (Homo sapiens, KB, 72 h, read-out: KB cells IC50 (50% inhibition of cell proliferation)) was determined as 5 µM. Besides, in series [3], the “fold less active than Trolox” value is recorded as 3 fold; the “ORAC FL relative ORAC value” is 0.29 relative Trolox equivalent and 0.29 ± 0.03 relative Trolox equivalent; the “concentration displaying FL decay curve similar to Trolox” value was 15.5 µM. Also, in series [1] (n = 2, read-out: PLA2 IC50), the IC50 was 460 ± 20 µM.

As to `NCCc1c[nH]c2cc(Br)c(Br)cc12` [Compound 5, 5,6-Dibromotryptamine], the IC50 in series [1] (n = 2, read-out: PLA2 IC50) stood at 620 ± 10 µM.

Consider `CNCCc1c[nH]c2cc(Br)c(Br)cc12` [Compound 6, N-Methyl-5,6-dibromotryptamine], for which the IC50 in series [1] (n = 2, read-out: PLA2 IC50) worked out at 330 ± 30 µM.

Turning to `CN(C)CCc1c[nH]c2cc(Br)c(Br)cc12` [Compound 7, N,N-Dimethyl-5,6-dibromotryptamine], the “ORAC FL relative ORAC value” in series [3] is recorded as 0.06 ± 0.01 relative Trolox equivalent. Besides, the IC50 in series [1] (n = 2, read-out: PLA2 IC50) was 770 ± 50 µM.

For `CN[C@@H](Cc1c[nH]c2cc(Br)c(Br)cc12)C(=O)O` [Compound 8, 5,6-Dibromoabrine], the “ORAC FL relative ORAC value” in series [3] is 0.07 ± 0.01 relative Trolox equivalent. Further, the IC50 in series [1] (n = 2, read-out: PLA2 IC50) is 300 ± 10 µM.

Take `C[N+](C)(C)[C@@H](Cc1c[nH]c2cc(Br)c(Br)cc12)C(=O)[O-]` [Compound 9, 5,6-Dibromo-L-hypaphorine]: in series [2] (at 10^−4 M, human KB cell line), the “cytotoxicity towards KB cells” value is given as “did not show any cytotoxic activity”. Further, in series [3], the “fold less active than Trolox” value is listed as 4 fold; the “ORAC FL relative ORAC value” is 0.22 relative Trolox equivalent and 0.22 ± 0.04 relative Trolox equivalent; the “concentration displaying FL decay curve similar to Trolox” value was 24.2 µM. The IC50 in series [1] (n = 2, read-out: PLA2 IC50) amounted to 200 ± 10 µM.

On to `Cc1c(C)c2c(c(C)c1O)CCC(C)(C(=O)O)O2` (centres unmarked) [Trolox, reference compound], for which the “ORAC FL relative ORAC value” in series [3] is recorded as 1 relative Trolox equivalent.
